The source of these data is patent publication US6670363B1, “Azole compounds as therapeutic agents for fungal infections” (Ranbaxy Laboratories Limited, priority 2000, dated 2003).

≈ marks a conversion by molar mass, not a printed value. Bounds are passed on as bounds.

For this assay, the system named is A. fumigatus s 1008. The assay can be described thus: In vitro MIC, NCCLS M38P broth method (RPMI 1640/MOPS pH7), Aspergillus fumigatus. The settings on record: A. fumigatus s 1008. The format is cell-based.
For “3-{4-[4-(4-chlorophenyl-N-ethylureido)-piperazinyl]-phenoxy}-2-(2,4-difluorophenyl)-1-(1H-1,2,4-triazolyl)-2-ethoxy-3-propylamine [Compound 74]”, the “MIC (υg/ml) (A. fumigatus s 1008)” value was greater than 12.5 µg/mL.
The same measure for “3-{4-[4-(4-chlorophenyl-N-ethylureido)-piperazinyl]-phenoxy}-2-(2,4-difluorophenyl)-1-(1H-1,2,4-triazolyl)-propan-3-amino-2-ol [Compound 73]”: greater than 12.5 µg/mL.
Turning to `Cc1ccc(NC(=S)NN2CCN(c3ccc(OCC(O)(Cn4cncn4)c4ccc(F)cc4F)cc3)CC2)cc1` (centres unmarked) [Compound 64, 3-{4-[4-(p-Tolylthioureido)piperazinyl]phenoxy}-2-(2,4-difluorophenyl)-1-(1H-1,2,4-trizol-1-yl)-propan-2-ol], the “MIC (υg/ml) (A. fumigatus s 1008)” value was determined as 3.12 µg/mL (≈ 5.38 µM).
The same measure for `CC(C)NC(=S)NN1CCN(c2ccc(OCC(O)(Cn3cncn3)c3ccc(F)cc3F)cc2)CC1` (centres unmarked) [Compound 65, 3-{4-[4-(Isopropylaminothiocarbonylamino)piperazinyl]phenoxy}-2-(2,4-difluorophenyl)-1-(1H-1,2,4-triazol-1-yl)-propan-2-ol]: greater than 12.5 µg/mL.
In the case of `OC(COc1ccc(N2CCN(NC(=S)Nc3ccc(Cl)cc3)CC2)cc1)(Cn1cncn1)c1ccc(F)cc1F` (centres unmarked) [Compound 66, 3-{4-[4-(4-Chlorophenylthioureido)piperazinyl]phenoxy}-2-(2,4-difluorophenyl)-1-(1H-1,2,4-triazol-1-yl)-propan-2-ol], the “MIC (υg/ml) (A. fumigatus s 1008)” value was greater than 12.5 µg/mL.
For the compound `O=C(Nc1ccc(Cl)cc1)NN1CCN(c2ccc(OCC(O)(Cn3cncn3)c3ccc(F)cc3F)cc2)CC1` (centres unmarked) [Compound 67, 3-{4-[4-(4-Chlorophenylureido)piperazinyl]phenoxy}-2-(2,4-difluorophenyl)-1-(1H-1,2,4-triazol-1-yl)-propan-2-ol], the “MIC (υg/ml) (A. fumigatus s 1008)” value was found to be 6.25 µg/mL (≈ 10.7 µM).
In the case of `OC(COc1ccc(N2CCN(NC(=S)Nc3cccc4ccccc34)CC2)cc1)(Cn1cncn1)c1ccc(F)cc1F` (centres unmarked) [Compound 68, 3-{4-[4-(1-Napthylthioureido)piperazinyl]phenoxy}-2-(2,4-difluorophenyl)-1-(1H-1,2,4-triazol-1-yl)-propan-2-ol] it was greater than 12.5 µg/mL; in that of `O=C(Nc1cccc2ccccc12)NN1CCN(c2ccc(OCC(O)(Cn3cncn3)c3ccc(F)cc3F)cc2)CC1` (centres unmarked) [Compound 69, 3-{4-[4-(1-Napthylureido)piperazinyl]phenoxy}-2-(2,4-difluorophenyl)-1-(1H-1,2,4-triazol-1-yl)-propan-2-ol], greater than 12.5 µg/mL.
The same measure for `OC(COc1ccc(N2CCN(NC(=S)Nc3ccc(C(F)(F)F)cc3)CC2)cc1)(Cn1cncn1)c1ccc(F)cc1F` (centres unmarked) [Compound 70, 3-{4-[4-(4-Trifluoromethylphenylthioureido)piperazinyl]phenoxy}-2-(2,4-difluorophenyl)-1-(1H-1,2,4-triazol-1-yl)-propan-2-ol]: greater than 12.5 µg/mL.
Turning to `COc1ccc(NC(=O)NN2CCN(c3ccc(OCC(O)(Cn4cncn4)c4ccc(F)cc4F)cc3)CC2)cc1` (centres unmarked) [Compound 71, 3-{4-[4-(4-Methoxyphenylureido)piperazinyl]phenoxy}-2-(2,4-difluorophenyl)-1-(1H-1,2,4-triazol-1-yl)-propan-2-ol], the “MIC (υg/ml) (A. fumigatus s 1008)” value is greater than 12.5 µg/mL.
The same measure for `O=C(Nc1ccc(Cl)cc1Cl)NN1CCN(c2ccc(OCC(O)(Cn3cncn3)c3ccc(F)cc3F)cc2)CC1` (centres unmarked) [Compound 72, 3-{4-[4-(2,4-Dichlorophenylureido)piperazinyl]phenoxy}-2-(2,4-difluorophenyl)-1-(1H-1,2,4-triazol-1-yl)-propan-2-ol]: greater than 12.5 µg/mL; for `COC(COc1ccc(N2CCN(NC(=O)N(C)c3ccc(Cl)cc3)CC2)cc1)(Cn1cncn1)c1ccc(F)cc1F` (centres unmarked) [Compound 75, 3-{4-[4-N-(4-Chlorophenyl)-N-(methylureido)-piperazinyl]-phenoxy}-2-(2,4-difluorophenyl)-1-(1H-1,2,4-triazolyl)-2-methoxypropane]: greater than 12.5 µg/mL.
The same measure for `Nc1ccc(NC(=O)NN2CCN(c3ccc(OCC(O)(Cn4cncn4)c4ccc(F)cc4F)cc3)CC2)cc1` (centres unmarked) [Compound 76, 3-{4-[4-(4-Aminophenylureido)piperazinyl]phenoxy}-2-(2,4-difluorophenyl)-1-(1H-1,2,4-triazol-1-yl)-propan-2-ol]: greater than 12.5 µg/mL.
Turning to `C[C@@H](Oc1ccc(N2CCN(NC(=O)Nc3ccc(Cl)cc3)CC2)cc1)[C@](O)(Cn1cncn1)c1ccc(F)cc1F` [Compound 77, [1R2R/1S2S] 1-{4-[4-(4-Chlorophenylureido)-piperazinyl]-phenoxy}-2-(2,4-difluorophenyl)-1-methyl-3-(1H-1,2,4-triazolyl)-propan-2-ol], the “MIC (υg/ml) (A. fumigatus s 1008)” value is 2 µg/mL (≈ 3.34 µM).
The same measure for `CC(Oc1ccc(N2CCN(NC(=O)Nc3ccc(Cl)cc3)CC2)cc1)C(O)(Cn1cncn1)c1ccc(F)cc1F` (centres unmarked) [Compound 78, [1R2S/1S2R] 1-{4-[4-(4-Chlorophenylureido)-piperazinyl]-phenoxy}2-(2,4-difluorophenyl)-1-methyl-3-(1H-1,2,4-triazolyl)-propan-2-ol]: 0.5 µg/mL (≈ 0.836 µM).
The same measure for `CC(Oc1ccc(N2CCN(NC(=O)Nc3ccc(C(F)(F)F)cc3)CC2)cc1)C(O)(Cn1cncn1)c1ccc(F)cc1F` (centres unmarked) [Compound 79, 1-{4-[4-(4-Trifluoromethylphenylureido)piperazinyl]phenoxy}-2-(2,4-difluorophenyl)-1-methyl-3-(1H-1,2,4-triazol-1-yl)-propan-2-ol]: 8 µg/mL (≈ 12.7 µM).
In the case of `O=C(Nc1ccccc1)NN1CCN(c2ccc(OCC(O)(Cn3cncn3)c3ccc(F)cc3F)cc2)CC1` (centres unmarked) [Compound 80, 3-{4-[4-(Phenylureido)-piperazinyl]phenoxy}-2-(2,4-difluorophenyl)-1-(1H-1,2,4-triazol-1-yl)-propan-2-ol] it was greater than 12.5 µg/mL; in that of `CN(CC(O)(Cn1cncn1)c1ccc(F)cc1F)c1ccc(NC(=S)Nc2ccccc2)cc1` (centres unmarked) [Compound 81, 3-{N-[4-(Phenylthioureido)-phenyl]-N-methyl}-2-(2,4-Difluorophenyl)-1-(1H-1,2,4-triazolyl)-propan-3-amino-2-ol], greater than 12.5 µg/mL.
In the case of `CC(C)NC(=S)Nc1ccc(N(C)CC(O)(Cn2cncn2)c2ccc(F)cc2F)cc1` (centres unmarked) [Compound 82, 3-{N-[4-(Isopropylthioureido)-phenyl]-N-methyl}-2-(2,4-difluorophenyl)-1-(1H-1,2,4-triazolyl)-propan-3-amino-2-ol], the “MIC (υg/ml) (A. fumigatus s 1008)” value was greater than 12.5 µg/mL.
The same measure for `Cc1ccc(NC(=S)Nc2ccc(N(C)CC(O)(Cn3cncn3)c3ccc(F)cc3F)cc2)cc1` (centres unmarked) [Compound 83, 3-{N-[4-(p-Tolylthioureido)-phenyl]-N-methyl}-2-(2,4-difluorophenyl)-1-(1H-1,2,4-triazolyl)-propan-3-amino-2-ol]: greater than 12.5 µg/mL; for `CN(CC(O)(Cn1cncn1)c1ccc(F)cc1F)c1ccc(NC(=O)Nc2ccc(F)cc2)cc1` (centres unmarked) [Compound 84, 3-{N-[4-(p-Fluorophenylureido)-phenyl]-N-methyl}-2-(2,4-difluorophenyl)-1-(1H-1,2,4-triazolyl)-propan-3-amino-2-ol]: greater than 12.5 µg/mL.
Consider `CN(CC(O)(Cn1cncn1)c1ccc(F)cc1F)c1ccc(NC(=O)Nc2ccc([N+](=O)[O-])cc2)cc1` (centres unmarked) [Compound 85, 3-{N-[4-(p-nitrophenylureido)-phenyl]-N-methyl}-2-(2,4-Difluorophenyl)-1-(1H-1,2,4-triazolyl)-propan-3-amino-2-ol], for which the “MIC (υg/ml) (A. fumigatus s 1008)” value is greater than 12.5 µg/mL.
The same measure for `CN(CC(O)(Cn1cncn1)c1ccc(F)cc1F)c1ccc(NC(=O)Nc2ccc(Cl)cc2)cc1` (centres unmarked) [Compound 86, 3-{N-[4-(p-Chlorophenylureido)-phenyl]-N-methyl}-2-(2,4-difluorophenyl)-1-(1H-1,2,4-triazolyl)-propan-3-amino-2-ol]: greater than 12.5 µg/mL; for `CN(CC(O)(Cn1cncn1)c1ccc(F)cc1F)c1ccc(NC(=O)Nc2ccc(CC(=O)O)cc2)cc1` (centres unmarked) [Compound 87]: greater than 12.5 µg/mL; for `COC(=O)Cc1ccc(NC(=O)Nc2ccc(N(C)CC(O)(Cn3cncn3)c3ccc(F)cc3F)cc2)cc1` (centres unmarked) [Compound 88, 3-{N-[4-((2-Methoxy-2-oxoethyl)-phenylureido)-phenyl]-N-methyl}-2-(2,4-difluorophenyl)-1-(1H-1,2,4-triazolyl)-propan-3-amino-2-ol]: greater than 12.5 µg/mL.
With `CN(CC(O)(Cn1cncn1)c1ccc(F)cc1F)c1ccc(NC(=O)Nc2ccc(NC(=S)Nc3ccc(Cl)cc3)cc2)cc1` (centres unmarked) [Compound 89, 3-{N-[4-((p-Chlorophenylthioureido)-phenylureido)-phenyl]-N-methyl}-2-(2,4-difluorophenyl)-1-(1H-1,2,4-triazolyl)-propan-3-amino-2-ol], the “MIC (υg/ml) (A. fumigatus s 1008)” value is greater than 12.5 µg/mL.
For `CC(C)NC(=S)NN1CCN(c2ccc(-n3cnn(CC(O)(Cn4cncn4)c4ccc(F)cc4F)c3=O)cc2)CC1` (centres unmarked) [Compound 90, 2-[2-(2,4-Difluorophenyl)-2-hydroxy-3-(1H-1,2,4-triazol-1-yl)propyl]-4-{4-[4-(isopropylthiouredio)-1-piperazinyl]phenyl}-3-(2H,4H)-1,2,4-triazolone], the “MIC (υg/ml) (A. fumigatus s 1008)” value is greater than 12.5 µg/mL.
In the case of `O=C(Nc1ccc(Cl)cc1)NN1CCN(c2ccc(-n3cnn(CC(O)(Cn4cncn4)c4ccc(F)cc4F)c3=O)cc2)CC1` (centres unmarked) [Compound 91, 2-[2-(2,4-Difluorophenyl)-2-hydroxy-3-(1H-1,2,4-triazol-1-yl)propyl]-4-{4-[4-(4-chlorophenyluredio)-1-piperazinyl]phenyl}-3-(2H,4H)-1,2,4-triazolone] it was greater than 12.5 µg/mL; in that of `O=c1n(-c2ccc(N3CCN(NC(=S)Nc4ccc(Cl)cc4)CC3)cc2)cnn1CC(O)(Cn1cncn1)c1ccc(F)cc1F` (centres unmarked) [Compound 92, 2-[2-(2,4-Difluorophenyl)-2-hydroxy-3-(1H-1,2,4-triazol-1-yl)propyl]-4-{4-[4-(4-chlorophenylthiouredio)-1-piperazinyl]phenyl}-3-(2H,4H)-1,2,4-triazolone], greater than 12.5 µg/mL.
